We go through 18 compounds from patent publication US20220081422A1 (Janssen Biotech, Inc., priority 2019, published 2022).

SMILES strings stand for the structures. A value given as a limit tells only on which side of the number the result lay.

In general, IC50 refers to the midpoint of a concentration-inhibition curve.

One experiment has as its system MOLM-13 cells. Description: MOLM-13 cellular assay (CellTiter-Glo cell viability). In kind it is cell-based. The following applies: 72 hours exposure, cell viability by CellTiter-Glo. The method, then:
In Vitro Assay: MOLM-13 Cellular Assay
MOLM-13 cells were obtained from DSMZ and were maintained in RPMI 1640+Glutamax+25 mM HEPES (Invitrogen, catalog number 72400) supplemented with 10% heat inactivated fetal bovine serum (FBS; Invitrogen, catalog number 16140). The day prior to assay set-up, cells were pelleted, resuspended in fresh media, counted, and cells were plated at 0.4×10^6 cell/mL in a T150 flask. On the day of the assay, cells were pelleted, resuspend in fresh media, counted and seeded at 5,000 cells/well in white opaque 96-well tissue culture treated microplates (Perkin Elmer, catalog number 6005680). Cells were exposed to different concentrations of test compounds at 37° C., 5% CO2 for 72 hours immediately after seeding. Cell viability was acquired on a Perkin Elmer Envision 2104 multilabel reader using the CellTiter-Glo assay (Promega) according to the manufacturer's instructions.
On the technique in general: ATP-based viability assays read luminescence as a measure of living cells.

Another experiment has as its target T1, human DHODH (Homo sapiens, UniProt Q02127).
T1 construct: purchased Proteros PR-0044
Description: DHODH enzymatic assay (DCIP absorbance, end-point). In kind it is biochemical. The following applies: purified human DHODH, DCIP as final electron acceptor, end-point mode; read-out: hDHODH IC50. The method, then:
In vitro Assay: DHODH enzymatic assay
To detect DHODH enzyme activities, dichloroindophenol (DCIP) is added as the final electron acceptor in the assay. DCIP can accept electrons from the reduced coenzyme Q generated in the assay, or from dihydroorotate (DHO) via FMN by binding presumably to the ubiquinone pocket. […] The assay buffer contained […], pH 7.5, 150 mM NaCl, 0.5 mM EDTA, and 0.1% Triton X-100 in MilliQ water. Substrate consisting of 20 mM DHO, 5 mM CoQ6, and 1 mM DCIP in assay buffer, initiates the reaction. […] Absorbance measurements were obtained using the BMG Phera Star plate-reading spectrophotometer. Purified human DHODH was purchased from Proteros (cat. No. PR-0044). Chemicals were purchased from Sigma-Aldrich, Teknova, and Avanti Polar Lipids. Liquid handling was performed using Labcyte Echo and Formulatrix Tempest.

T1 sequence (Q02127 whole entry): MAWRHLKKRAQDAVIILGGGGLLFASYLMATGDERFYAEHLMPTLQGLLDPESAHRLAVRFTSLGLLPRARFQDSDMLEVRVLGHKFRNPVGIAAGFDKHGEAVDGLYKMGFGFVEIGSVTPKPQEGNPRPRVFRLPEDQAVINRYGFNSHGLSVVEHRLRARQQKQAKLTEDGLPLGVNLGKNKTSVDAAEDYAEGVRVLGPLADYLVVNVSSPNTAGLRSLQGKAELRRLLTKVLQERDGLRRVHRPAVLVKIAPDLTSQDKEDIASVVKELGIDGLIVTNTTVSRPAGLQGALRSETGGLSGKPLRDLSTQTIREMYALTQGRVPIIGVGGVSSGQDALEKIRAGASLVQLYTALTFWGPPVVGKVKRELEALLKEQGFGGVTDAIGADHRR

With `CCn1c(CO)nn(-c2cc3c(cc2F)C(=O)N(c2c(C)cnc(OC)c2Cl)CC3C(C)C)c1=O` (single isomer, unassigned) [Example 66, (S*)-2-(3-Chloro-2-methoxy-5-methylpyridin-4-yl)-6-(4-ethyl-3-(hydroxymethyl)-5-oxo-4,5-dihydro-1H-1,2,4-triazol-1-yl)-7-fluoro-4-isopropyl-3,4-dihydroisoquinolin-1(2H)-one], the IC50 in the experiment on MOLM-13 cells is 2.96 nM; on human DHODH, 2 nM.

On to `C=C(C)[C@H]1CN(c2c(C)cc(C)nc2Cl)C(=O)c2cc(F)c(-n3nc(CO)n(CC)c3=O)cc21` (single isomer, unassigned; atropisomer 1) [Example 59, Atropisomer 1, (R *)-2-(2-Chloro-4,6-dimethylpyridin-3-yl)-6-(4-ethyl-3-(hydroxymethyl)-5-oxo-4,5-dihydro-1H-1,2,4-triazol-1-yl)-7-fluoro-4-(prop-1-en-2-yl)-3,4-dihydroisoquinolin-1(2H)-one], for which the IC50 with MOLM-13 cells was 1860 nM; on human DHODH, above 100 nM.

On to `C=C(C)[C@@H]1CN(c2c(C)cc(C)nc2Cl)C(=O)c2cc(F)c(-n3nc(CO)n(CC)c3=O)cc21` (single isomer, unassigned; atropisomer 1) [Example 60, Atropisomer 1, (S*)-2-(2-Chloro-4,6-dimethylpyridin-3-yl)-6-(4-ethyl-3-(hydroxymethyl)-5-oxo-4,5-dihydro-1H-1,2,4-triazol-1-yl)-7-fluoro-4-(prop-1-en-2-yl)-3,4-dihydroisoquinolin-1(2H)-one], for which the IC50 was 26.8 nM with MOLM-13 cells and above 100 nM on human DHODH.

Turning to `CCn1c(CO)nn(-c2cc3c(cc2F)C(=O)N(c2c(F)cccc2Cl)C(C)N3C(C)C)c1=O` (stereo not shown) [Example 2, 3-(2-Chloro-6-fluorophenyl)-7-(4-ethyl-3-(hydroxymethyl)-5-oxo-4,5-dihydro-1H-1,2,4-triazol-1-yl)-6-fluoro-1-isopropyl-2-methyl-2,3-dihydroquinazolin-4(1H)-one], the IC50 in the experiment with MOLM-13 cells (Homo sapiens, MOLM-13, 72 h) is 8.4 nM; on human DHODH, 35 nM.

In the case of `C=C(C)[C@H]1CN(c2c(C)cnc(OC)c2Cl)C(=O)c2cc(F)c(-n3nc(CO)n(CC)c3=O)cc21` (single isomer, unassigned; atropisomer 2) [Example 65, Atropisomer 2, (R*)-2-(3-Chloro-2-methoxy-5-methylpyridin-4-yl)-6-(4-ethyl-3-(hydroxymethyl)-5-oxo-4,5-dihydro-1H-1,2,4-triazol-1-yl)-7-fluoro-4-(prop-1-en-2-yl)-3,4-dihydroisoquinolin-1(2H)-one], in the experiment with MOLM-13 cells, it took 20.7 nM to reach half-maximal inhibition (IC50).

Take `CCn1c(CO)nn(-c2cc3c(cc2F)C(=O)N(c2c(F)cccc2Cl)CN3CC(C)C)c1=O` [Example 18, 3-(2-Chloro-6-fluorophenyl)-7-(4-ethyl-3-(hydroxymethyl)-5-oxo-4,5-dihydro-1H-1,2,4-triazol-1-yl)-6-fluoro-1-isobutyl-2,3-dihydroquinazolin-4(1H)-one]: the IC50 is 3.99 nM in the experiment on MOLM-13 cells (Homo sapiens, MOLM-13, 72 h) and 2 nM at human DHODH.

In the case of `C=C(C)[C@@H]1CN(c2c(C)cnc(OC)c2C)C(=O)c2cc(F)c(-n3nc(CO)n(CC)c3=O)cc21` (single isomer, unassigned; atropisomer 2) [Example 56, Atropisomer 2, (S*)-6-(4-Ethyl-3-(hydroxymethyl)-5-oxo-4,5-dihydro-1H-1,2,4-triazol-1-yl)-7-fluoro-2-(2-methoxy-3,5-dimethylpyridin-4-yl)-4-(prop-1-en-2-yl)-3,4-dihydroisoquinolin-1(2H)-one], the results for the IC50 in the experiment with MOLM-13 cells and on human DHODH were 101 nM and above 100 nM, respectively.

For the compound `CCn1c(CO)nn(-c2cc3c(cc2F)C(=O)N(c2c(F)cccc2Cl)CN3CC2CCCCC2)c1=O` [Example 21, 3-(2-Chloro-6-fluorophenyl)-1-(cyclohexylmethyl)-7-(4-ethyl-3-(hydroxymethyl)-5-oxo-4,5-dihydro-1H-1,2,4-triazol-1-yl)-6-fluoro-2,3-dihydroquinazolin-4(1H)-one], the IC50 with MOLM-13 cells (Homo sapiens, MOLM-13, 72 h) is 22.9 nM; on human DHODH, 6 nM.

Take `CCn1c(CO)nn(-c2ccc3c(c2)C(C(C)C(F)(F)F)CN(c2ccccc2F)C3=O)c1=O` (stereo not shown) [Example 74, 6-(4-Ethyl-3-(hydroxymethyl)-5-oxo-4,5-dihydro-1H-1,2,4-triazol-1-yl)-2-(2-fluorophenyl)-4-(1,1,1-trifluoropropan-2-yl)-3,4-dihydroisoquinolin-1(2H)-one]: in the experiment on MOLM-13 cells (Homo sapiens, MOLM-13, 72 h), 102 nM corresponded to half-maximal inhibition (IC50).

On to `C=C(C)[C@H]1CN(c2c(C)ccnc2OC)C(=O)c2cc(F)c(-n3nc(CO)n(CC)c3=O)cc21` (single isomer, unassigned; atropisomer 1) [Example 52, Atropisomer 1, (R *)-6-(4-Ethyl-3-(hydroxymethyl)-5-oxo-4,5-dihydro-1H-1,2,4-triazol-1-yl)-7-fluoro-2-(2-methoxy-4-methylpyridin-3-yl)-4-(prop-1-en-2-yl)-3,4-dihydroisoquinol in-1 (2H)-one], for which the IC50 with MOLM-13 cells is 105 nM.

Take `C=C(C)C1CN(c2c(F)cccc2Cl)C(=O)c2cc(F)c(-n3nc(CO)n(CC)c3=O)cc21` (single isomer, unassigned) [Example 68, (R*)-2-(2-Chloro-6-fluorophenyl)-6-(4-ethyl-3-(hydroxymethyl)-5-oxo-4,5-dihydro-1H-1,2,4-triazol-1-yl)-7-fluoro-4-(prop-1-en-2-yl)-3,4-dihydroisoquinolin-1(2H)-one]: the IC50 in the experiment with MOLM-13 cells came out at 4.66 nM; at human DHODH, 2 nM.

In the case of `CCn1c(CO)nn(-c2cc3c(cc2F)C(=O)N(c2ccccc2Cl)CC3C(C)C)c1=O` (single isomer, unassigned) [Example 36, (S*)-2-(2-Chlorophenyl)-6-(4-ethyl-3-(hydroxymethyl)-5-oxo-4,5-dihydro-1H-1,2,4-triazol-1-yl)-7-fluoro-4-isopropyl-3,4-dihydroisoquinolin-1(2H)-one], the IC50 with MOLM-13 cells was 31.6 nM; at human DHODH, 30 nM.

Regarding `CCn1c(CO)nn(-c2cc3c(cc2F)C(=O)N(c2c(C)cnc(OC)c2Cl)CN3C(C)C)c1=O` [Example 32, 3-(3-Chloro-2-methoxy-5-methylpyridin-4-yl)-7-(4-ethyl-3-(hydroxymethyl)-5-oxo-4,5-dihydro-1H-1,2,4-triazol-1-yl)-6-fluoro-1-isopropyl-2,3-dihydroquinazolin-4(1H)-one], the IC50 in the experiment on MOLM-13 cells (Homo sapiens, MOLM-13, 72 h) was determined as 5.96 nM; at human DHODH, 9 nM.

Take `C=C(C)C1CN(c2c(C)ccnc2Cl)C(=O)c2cc(F)c(-n3nc(CO)n(CC)c3=O)cc21` (single isomer, unassigned) [Example 47, (R *)-2-(2-Chloro-4-methylpyridin-3-yl)-6-(4-ethyl-3-(hydroxymethyl)-5-oxo-4,5-dihydro-1H-1,2,4-triazol-1-yl)-7-fluoro-4-(prop-1-en-2-yl)-3,4-dihydroisoquinolin-1 (2H)-one]: half-maximal inhibition in the experiment with MOLM-13 cells (IC50) required 298 nM.

Consider `CCn1c(CO)nn(-c2cc3c(cc2F)C(=O)N(c2c(F)cccc2Cl)CN3C(C)C)c1=O` [Example 1, 3-(2-Chloro-6-fluorophenyl)-7-(4-ethyl-3-(hydroxymethyl)-5-oxo-4,5-dihydro-1H-1,2,4-triazol-1-yl)-6-fluoro-1-isopropyl-2,3-dihydroquinazolin-4(1H)-one], for which, in the experiment with MOLM-13 cells (Homo sapiens, MOLM-13, 72 h), it took 0.85 nM to reach half-maximal inhibition (IC50).

In turn, `C=C(C)[C@H]1CN(c2c(C)ccnc2OC)C(=O)c2cc(F)c(-n3nc(CO)n(CC)c3=O)cc21` (single isomer, unassigned; atropisomer 2) [Example 53, Atropisomer 2, (R*)-6-(4-Ethyl-3-(hydroxymethyl)-5-oxo-4,5-dihydro-1H-1,2,4-triazol-1-yl)-7-fluoro-2-(2-methoxy-4-methylpyridin-3-yl)-4-(prop-1-en-2-yl)-3,4-dihydroisoquinolin-1(2H)-one] gave an IC50 in the experiment with MOLM-13 cells of 3.36 nM.

Regarding `C=C(C)C1CN(c2c(C)ccnc2Cl)C(=O)c2cc(F)c(-n3nc(CO)n(CC)c3=O)cc21` (single isomer, unassigned) [Example 46, (S*)-2-(2-Chloro-4-methylpyridin-3-yl)-6-(4-ethyl-3-(hydroxymethyl)-5-oxo-4,5-dihydro-1H-1,2,4-triazol-1-yl)-7-fluoro-4-(prop-1-en-2-yl)-3,4-dihydroisoquinolin-1(2H)-one], in the experiment on MOLM-13 cells, the IC50 was found to be 5.46 nM.

`CCn1c(CO)nn(-c2ccc3c(c2)C(C(C)C(F)(F)F)CN(c2c(F)cccc2Cl)C3=O)c1=O` (stereo not shown) [Example 75, 2-(2-Chloro-6-fluorophenyl)-6-(4-ethyl-3-(hydroxymethyl)-5-oxo-4,5-dihydro-1H-1,2,4-triazol-1-yl)-4-(1,1,1-trifluoropropan-2-yl)-3,4-dihydroisoquinolin-1(2H)-one]: half-maximal inhibition with MOLM-13 cells (Homo sapiens, MOLM-13, 72 h) (IC50) required 16.1 nM.
